Data taken from US8178506B2, “Oligomeric compounds and compositions for use in modulation of small non-coding RNAs” (Regulus Therapeutics Inc., priority 2003, dated 2012).
In the oligonucleotide strings, read from the 5' end, every base follows the letter of its sugar. An asterisk marks phosphorothioate; unmarked linkages are phosphodiester. Other units and linkages are bracketed, terminal groups are in braces. A string of capitals states the bases alone. e = 2'-O-(2-methoxyethyl) (MOE); [5mC] = 5-methylcytosine; d = 2'-deoxy (DNA)

Tested on: T47D cells
Assay: Caspase-3 activity assay (apoptosis) in T47D cells
Details: caspase assay, 200 nM; conclusion from Tables 9-12

Substance	apoptosis in T47D cells
SEQ ID NO 532: gapmer of Tables 9-12 having this SEQ ID NO (antisense e[5mC]*e[5mC]*eA*e[5mC]*eA*dT*dA*dT*dA*d[5mC]*dA*dT*dA*dT*dA*eT*eA*e[5mC]*eG*e[5mC])	prevent or have a protective effect from apoptosis
SEQ ID NO 534: gapmer of Tables 9-12 having this SEQ ID NO (antisense eG*eA*e[5mC]*e[5mC]*eT*dG*d[5mC]*dT*dA*d[5mC]*dT*d[5mC]*dA*d[5mC]*dT*e[5mC]*eT*e[5mC]*eG*eT)	prevent or have a protective effect from apoptosis
SEQ ID NO 535: gapmer of Tables 9-12 having this SEQ ID NO (antisense eG*eG*eT*eT*eG*dG*d[5mC]*d[5mC]*dG*d[5mC]*dA*dG*dA*d[5mC]*dT*e[5mC]*eG*eT*eA*e[5mC])	induce apoptosis
SEQ ID NO 536: gapmer of Tables 9-12 having this SEQ ID NO (eG*eA*eT*eG*eT*d[5mC]*dA*d[5mC]*dT*dG*dA*dG*dG*dA*dA*eA*eT*e[5mC]*eA*e[5mC])	prevent or have a protective effect from apoptosis
SEQ ID NO 539: gapmer of Tables 9-12 having this SEQ ID NO (e[5mC]*e[5mC]*eG*eG*e[5mC]*dT*dA*dT*dT*dG*dA*dG*dT*dT*dA*eT*eG*eT*eA*e[5mC])	induce apoptosis
SEQ ID NO 541: gapmer of Tables 9-12 having this SEQ ID NO (eG*eA*eG*e[5mC]*eA*dT*dG*d[5mC]*dA*dA*d[5mC]*dA*d[5mC]*dT*d[5mC]*eT*eG*eT*eG*e[5mC])	prevent or have a protective effect from apoptosis
SEQ ID NO 543: gapmer of Tables 9-12 having this SEQ ID NO (e[5mC]*eG*e[5mC]*eA*eT*d[5mC]*dT*dT*dG*dA*d[5mC]*dT*dG*dT*dA*eG*e[5mC]*eA*eT*eG)	prevent or have a protective effect from apoptosis
SEQ ID NO 544: gapmer of Tables 9-12 having this SEQ ID NO (eT*e[5mC]*eT*eA*eA*dG*dG*dG*dG*dT*d[5mC]*dA*d[5mC]*dA*dG*eA*eA*eG*eG*eT)	induce apoptosis
TACAACGGCATTGTCCTGAA (antisense; same sequence listed as MOE 5-10-5 gapmer and as uniform MOE, further chemistry not given here) [ISIS 328655]	prevent or have a protective effect from apoptosis
TACAATTTGGGAGTCCTGAA (antisense; same sequence listed as MOE 5-10-5 gapmer and as uniform MOE, further chemistry not given here) [ISIS 328689]	prevent or have a protective effect from apoptosis
TGCCATGAGATTCAACAGTC (2'-MOE gapmer, phosphorothioate, chemistry not fully specified) [ISIS 328415]	induce apoptosis
TGCTCAGCCAGCCCCATTCT (antisense; same sequence listed as MOE 5-10-5 gapmer and as uniform MOE, further chemistry not given here) [ISIS 328645]	induce apoptosis
TGCTGACTGCTCGCCCTTGC (antisense; same sequence listed as MOE 5-10-5 gapmer and as uniform MOE, further chemistry not given here) [ISIS 328641]	induce apoptosis
TTGTATGGACATTTAAATCA (antisense; same sequence listed as MOE 5-10-5 gapmer and as uniform MOE, further chemistry not given here) [ISIS 328692]	induce apoptosis
TTTCAGGCTCACCTCCCCAG (antisense; same sequence listed as MOE 5-10-5 gapmer and as uniform MOE, further chemistry not given here) [ISIS 328656]	induce apoptosis
